Here are results for six compounds from patent publication US6878716B1, “Compounds specific to adenosine A1 receptor and uses thereof” (OSI Pharmaceuticals, Inc., priority 1998, dated 2005).

One assay deals with T1, A1 adenosine receptor (Homo sapiens, UniProt P30542).
T1 sequence (P30542 1-326): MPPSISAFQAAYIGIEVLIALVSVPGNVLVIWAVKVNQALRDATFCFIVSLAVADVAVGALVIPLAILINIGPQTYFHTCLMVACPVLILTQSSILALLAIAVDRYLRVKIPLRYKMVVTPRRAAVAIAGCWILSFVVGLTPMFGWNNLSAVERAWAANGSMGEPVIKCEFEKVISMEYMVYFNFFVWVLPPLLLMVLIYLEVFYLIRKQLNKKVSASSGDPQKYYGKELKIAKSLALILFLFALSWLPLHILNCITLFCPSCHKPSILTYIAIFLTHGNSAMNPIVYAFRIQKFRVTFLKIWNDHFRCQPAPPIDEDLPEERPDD
The note with it: reported value; cited from earlier work.

The target of assay [1] is T2, human adenosine A1 receptor (Homo sapiens, UniProt P30542).
T2 sequence (P30542 1-326): T1 sequence (P30542 1-326)
The assay can be described thus: Yeast β-Galactosidase reporter gene assay, inhibition of NECA-induced activity (strain CY12660).

For assay [2], the target named is T3, human A1 receptor subtype (Homo sapiens, UniProt P30542).
T3 sequence (P30542 1-326): T1 sequence (P30542 1-326)
The assay can be described thus: biochemical.

Assay [3] addresses T4, human A2a receptor subtype (Homo sapiens, UniProt P29274).
T4 construct: expressed in transfected cells; host or cells: HEK-293 (Cadus clone # 5)
The assay can be described thus: Adenosine 2a receptor subtype competition radioligand binding ([3H]CGS-21680, HEK293 membranes). The note with it: Table 13, % value; footnote 8: % activity @ 10 μM.

The target in assay [4] is T3, human A1 receptor subtype. The note with it: Table 13, % value; footnote 8: % activity @ 10 μM.
Where [5] appears, read: read-out: A1 Yeast IC50, Table 10.

Molecules are shown by their SMILES. pIC50, pKi: −log10 of the molar value. Like-named read-outs stand apart in the source and are kept apart here.

T4 sequence (P29274 whole entry): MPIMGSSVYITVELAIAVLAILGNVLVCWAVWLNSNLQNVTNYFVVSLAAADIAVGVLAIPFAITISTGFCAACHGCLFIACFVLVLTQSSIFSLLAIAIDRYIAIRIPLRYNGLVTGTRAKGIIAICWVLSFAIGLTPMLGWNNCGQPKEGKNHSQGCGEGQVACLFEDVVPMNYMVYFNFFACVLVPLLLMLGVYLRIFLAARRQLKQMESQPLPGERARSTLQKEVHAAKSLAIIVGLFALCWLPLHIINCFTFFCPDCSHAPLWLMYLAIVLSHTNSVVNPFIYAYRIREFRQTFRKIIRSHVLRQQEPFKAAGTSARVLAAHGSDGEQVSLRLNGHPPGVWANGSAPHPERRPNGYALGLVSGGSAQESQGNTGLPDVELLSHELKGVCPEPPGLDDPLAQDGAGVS

For the compound `C[C@H](Cc1ccccc1)Nc1ncnc2c1ncn2[C@@H]1O[C@H](CO)[C@@H](O)[C@H]1O` (single isomer, unassigned) [R-PIA, (−)-N6-(2-phenylisopropyl)-adenosine], the “affinity (reported)” value at A1 adenosine receptor is listed as “approximately 50 nM”. For `Cc1[nH]c2nc(-c3ccccc3)nc(NCCNS(C)(=O)=O)c2c1C` [Compound 1007], the pIC50 in assay [1] (setting [5]) was less than 5.00. The same measure, in the same setting: as for `Cc1[nH]c2nc(-c3ccccc3)nc(NCCNC(=O)CCN)c2c1C` [Compound 1009], the figure is less than 5.00.

Turning to `CCC(=O)NCCCNc1nc(-c2ccccc2)nc2[nH]c(C)c(C)c12` [Compound 1012], in assay [1], the pIC50 is 5.46. The pKi in assay [2] was 6.63. Regarding `CNC(=O)NCCCNc1nc(-c2ccccc2)nc2[nH]c(C)c(C)c12` [Compound 1310], the A2a % activity in assay [3] is 76%. `Cc1[nH]c2nc(-c3ccccc3)nc(NCCNC(=O)C3(N)CC3)c2c1C` [Compound 1313] returned an A1 % activity in assay [4] of 30%. In addition, the A2a % activity in assay [3] worked out at 65%.
